Source: patent US20250154173A1 (Merck Sharp & Dohme LLC, priority 2023, published 2025)

Biological target: T1, GST-RIPK1 (recombinant GST-RIPK1 kinase domain (residues 1-327)) (Homo sapiens, UniProt Q13546)
T1 construct: recombinant GST-RIPK1 kinase domain (residues 1-327) enzyme produced from baculovirus-transfected Sf21 cells; host or cells: baculovirus-transfected Sf21 insect cells
T1 sequence (Q13546 1-327): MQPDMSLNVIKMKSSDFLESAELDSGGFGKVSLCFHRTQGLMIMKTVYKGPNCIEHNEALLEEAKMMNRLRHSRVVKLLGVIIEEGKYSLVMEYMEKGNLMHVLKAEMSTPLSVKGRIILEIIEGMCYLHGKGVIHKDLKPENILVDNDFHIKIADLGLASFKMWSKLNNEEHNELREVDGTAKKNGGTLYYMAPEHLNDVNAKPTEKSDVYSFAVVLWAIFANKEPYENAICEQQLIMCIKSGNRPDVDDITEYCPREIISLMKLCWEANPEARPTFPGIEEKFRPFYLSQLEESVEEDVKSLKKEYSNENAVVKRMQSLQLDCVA
Test: RIPK1-ADP-Glo Enzymatic Assay
Assay type: biochemical
Conditions: ten-point titration, top compound concentration of 100000 nM; 25 nM GST-RIPK1, 300 μM ATP, 3 μM dephosphorylated-MBP; 30 min pre-incubation, 150 min reaction
In short: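 GST-RIPK1 kinase domain (residues 1-327, Sf21-expressed), 25 nM, preincubated 30 min with compound, then reacted 150 min with 300 μM ATP and 3 μM dephosphorylated MBP in pH 7.3 Hepes buffer, 1% DMSO. ADP measured by ADP-Glo luminescence; EC50 from ten-point titration (top 100000 nM), four-parameter fit.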

Q: With O=C1N2C(CC[C@H]2c2cnccn2)OC12CC(OCc1nnc(Cc3ccccc3)s1)C2 (stereo partly drawn) [Example 18.12, (5′S)-3-[(5-benzyl-1,3,4-thiadiazol-2-yl)methoxy]-5′-(pyrazin-2-yl)tetrahydro-3′H-spiro[cyclobutane-1,2′-pyrrolo[2,1-b][1,3]oxazol]-3′-one] as the compound, how does the EC50 read?
A: Its EC50 is 0.181 µM.

Q: For “5-{[(1r,3R,5′S,7a′R)-3′-oxo-5′- phenyltetrahydro-3′H- spiro[cyclobutane-1,2′-pyrrolo[2,1- b][1,3]oxazol]-3-yl]oxy}pyridine-3- carbonitrile [Example 9.15]”, which EC50 is on record?
A: The EC50 was 0.073 µM.

Q: How did the EC50 turn out when O=C1N2[C@@H](CC[C@H]2c2ccccc2)OC12CC(Oc1cncc(Cl)c1)C2 (stereo partly drawn) [Example 8.17] was run?
A: The EC50 was 0.035 µM.

Q: CCC(C)Oc1cccc(COC2CC3(C2)O[C@@H]2CC[C@@H](c4cnccn4)N2C3=O)n1 (stereo partly drawn) [Example 18.66, (5′S,7a′R)-3-({6-[(butan-2-yl)oxy]pyridin-2-yl}methoxy)-5′-(pyrazin-2-yl)tetrahydro-3′H-spiro[cyclobutane-1,2′-pyrrolo[2,1-b][1,3]oxazol]-3′-one] was tested. Which EC50 did it give?
A: The EC50 was 0.141 µM.

Q: For N#Cc1cncc(O[C@H]2C[C@@]3(C2)O[C@@H]2CC[C@@H](c4ccccc4)N2C3=O)n1 [Example 9.16, 6-{[(1r,3R,5′S,7a′R)-3′-oxo-5′-phenyltetrahydro-3′H-spiro[cyclobutane-1,2′-pyrrolo[2,1-b][1,3]oxazol]-3-yl]oxy}pyrazine-2-carbonitrile], which EC50 is on record?
A: Its EC50 is 0.078 µM.

Q: Which EC50 does the source give for N#CC1(c2ccc(COC3CC4(C3)OC3CC[C@@H](c5cnccn5)N3C4=O)cn2)CCC1 (stereo partly drawn) [Example 18.78, 1-[5-({[(5′S)-3′-oxo-5′-(pyrazin-2-yl)tetrahydro-3′H-spiro[cyclobutane-1,2′-pyrrolo[2,1-b][1,3]oxazol]-3-yl]oxy}methyl)pyridin-2-yl]cyclobutane-1-carbonitrile] here?
A: The EC50 was 0.721 µM.

Q: O=C1N2C(CC[C@H]2c2cnccn2)OC12CC(OCc1cnc3c(c1)CCCC3)C2 (stereo partly drawn) [Example 18.90, (5′S)-5′-(pyrazin-2-yl)-3-[(5,6,7,8-tetrahydroquinolin-3-yl)methoxy]tetrahydro-3′H-spiro[cyclobutane-1,2′-pyrrolo[2,1-b][1,3]oxazol]-3′-one] was tested. Which EC50 did it give?
A: The EC50 was 0.78 µM.

Q: With Cn1ccc([C@@H]2CC[C@H]3OC4(CC(Oc5cccnc5)C4)C(=O)N32)n1 (stereo partly drawn) [Example 19.11, (5′S,7a′R)-5′-(1-methyl-1H-pyrazol-3-yl)-3-[(pyridin-3-yl)oxy]tetrahydro-3′H-spiro[cyclobutane-1,2′-pyrrolo[2,1-b][1,3]oxazol]-3′-one] as the compound, how does the EC50 read?
A: The EC50 was 0.209 µM.

Q: How did the EC50 turn out when N#Cc1ccc(COC2CC3(C2)OC2CC[C@@H](c4cnccn4)N2C3=O)c2cccnc12 (stereo partly drawn) [Example 18.14, 5-({[(5′S)-3′-oxo-5′-(pyrazin-2-yl)tetrahydro-3′H-spiro[cyclobutane-1,2′-pyrrolo[2,1-b][1,3]oxazol]-3-yl]oxy}methyl)quinoline-8-carbonitrile] was run?
A: The EC50 was 0.016 µM.

Q: How did the EC50 turn out when COc1ccc(C#N)nc1COC1CC2(C1)OC1CC[C@@H](c3cnccn3)N1C2=O (stereo partly drawn) [Example 18.75, 5-methoxy-6-({[(5′S)-3′-oxo-5′-(pyrazin-2-yl)tetrahydro-3′H-spiro[cyclobutane-1,2′-pyrrolo[2,1-b][1,3]oxazol]-3-yl]oxy}methyl)pyridine-2-carbonitrile] was run?
A: Its EC50 is 0.896 µM.

Q: Which EC50 does the source give for O=C1N2[C@@H](CC[C@H]2c2cnccn2)OC12CC(OCC1CCC1)C2 (single isomer, unassigned) [Example 23.2, (5′S,7a′R)-3-(cyclobutylmethoxy)-5′-(pyrazin-2-yl)tetrahydro-3′H-spiro[cyclobutane-1,2′-pyrrolo[2,1-b]oxazol]-3′-one] here?
A: Its EC50 is 0.577 µM.

Q: Which EC50 does the source give for O=C1N2[C@@H](CC[C@H]2c2cnccn2)OC12CC(OCC1CCCC1)C2 (single isomer, unassigned) [Example 23.3, (5′S,7a′R)-3-(cyclopentylmethoxy)-5′-(pyrazin-2-yl)tetrahydro-3′H-spiro[cyclobutane-1,2′-pyrrolo[2,1-b]oxazol]-3′-one] here?
A: Its EC50 is 0.316 µM.

Q: With CC(O[C@H]1C[C@@]2(C1)O[C@@H]1CC[C@@H](c3cc(F)cc(F)c3)N1C2=O)c1ccc(F)cn1 (single isomer, unassigned) [Example 12.1, (1R,3R,5′S,7a′R)-5′-(3,5-difluorophenyl)-3-((R or S)-1-(5-fluoropyridin-2-yl)ethoxy)tetrahydro-3′H-spiro[cyclobutane-1,2′-pyrrolo[2,1-b]oxazol]-3′-one] as the compound, how does the EC50 read?
A: Its EC50 is 0.39 µM.

Q: COc1ccc2cc(COC3CC4(C3)OC3CC[C@@H](c5cnccn5)N3C4=O)ncc2n1 (stereo partly drawn) [Example 18.32, (5′S)-3-[(2-methoxy-1,7-naphthyridin-6-yl)methoxy]-5′-(pyrazin-2-yl)tetrahydro-3′H-spiro[cyclobutane-1,2′-pyrrolo[2,1-b][1,3]oxazol]-3′-one] was tested. Which EC50 did it give?
A: The EC50 was 0.143 µM.

Q: How did the EC50 turn out when N#Cc1cc(O[C@H]2C[C@@]3(C2)O[C@@H]2CC[C@@H](c4ccc(F)cc4)N2C3=O)ncn1 [Example 9.1, 6-(((1r,3R,5′S,7a′R)-5′-(4-fluorophenyl)-3′-oxotetrahydro-3′H-spiro[cyclobutane-1,2′-pyrrolo[2,1-b]oxazol]-3-yl)oxy)pyrimidine-4-carbonitrile] was run?
A: Its EC50 is 0.014 µM.

Q: How did the EC50 turn out when O=C1N2[C@@H](CC[C@H]2c2ccccc2)OC12CC(Oc1cccc3sncc13)C2 (stereo partly drawn) [Example 8.12, (5′S,7a′R)-3-[(1,2-benzothiazol-4-yl)oxy]-5′-phenyltetrahydro-3′H-spiro[cyclobutane-1,2′-pyrrolo[2,1-b][1,3]oxazol]-3′-one] was run?
A: Its EC50 is 0.02 µM.

Q: How did the EC50 turn out when COc1cc(COC2CC3(C2)OC2CC[C@@H](c4cnccn4)N2C3=O)cc2nccn12 (stereo partly drawn) [Example 18.34, (5′S)-3-[(5-methoxyimidazo[1,2-a]pyridin-7-yl)methoxy]-5′-(pyrazin-2-yl)tetrahydro-3′H-spiro[cyclobutane-1,2′-pyrrolo[2,1-b][1,3]oxazol]-3′-one] was run?
A: The EC50 was 0.231 µM.

Q: For O=C1N2[C@@H](CC[C@H]2c2ccccc2)OC12CC(Oc1ccc3sncc3c1)C2 (stereo partly drawn) [Example 8.14, (5′S,7a′R)-3-[(1,2-benzothiazol-5-yl)oxy]-5′-phenyltetrahydro-3′H-spiro[cyclobutane-1,2′-pyrrolo[2,1-b][1,3]oxazol]-3′-one], which EC50 is on record?
A: Its EC50 is 0.083 µM.

Q: O=C1N2C(CC[C@H]2c2cnccn2)OC12CC(OCc1ccc3nccn3c1)C2 (stereo partly drawn) [Example 18.69, (5′S)-3-[(imidazo[1,2-a]pyridin-6-yl)methoxy]-5′-(pyrazin-2-yl)tetrahydro-3′H-spiro[cyclobutane-1,2′-pyrrolo[2,1-b][1,3]oxazol]-3′-one] was tested. Which EC50 did it give?
A: Its EC50 is 0.109 µM.

Q: With N#Cc1cc(F)cc(OC2CC3(C2)O[C@@H]2CC[C@@H](c4cnccn4)N2C3=O)c1 (stereo partly drawn) [Example 19.4, 3-fluoro-5-{[(5′S,7a′R)-3′-oxo-5′-(pyrazin-2-yl)tetrahydro-3′H-spiro[cyclobutane-1,2′-pyrrolo[2,1-b][1,3]oxazol]-3-yl]oxy}benzonitrile] as the compound, how does the EC50 read?
A: The EC50 was 0.033 µM.

Q: With N#Cc1cccc(COC2CC3(C2)O[C@@H]2CC[C@@H](c4cnccn4)N2C3=O)c1 (stereo partly drawn) [Example 18.109, 3-((((5′S,7a′R)-3′-oxo-5′-(pyrazin-2-yl)tetrahydro-3′H-spiro[cyclobutane-1,2′-pyrrolo[2,1-b]oxazol]-3-yl)oxy)methyl)benzonitrile] as the compound, how does the EC50 read?
A: The EC50 was 0.025 µM.

Q: How did the EC50 turn out when O=C1N2[C@@H](CC[C@H]2c2cc(F)cc(F)c2)OC12CC(Oc1ncccc1F)C2 (stereo partly drawn) [Example 9.38, (5′S,7a′R)-5′-(3,5-difluorophenyl)-3-[(3-fluoropyridin-2-yl)oxy]tetrahydro-3′H-spiro[cyclobutane-1,2′-pyrrolo[2,1-b][1,3]oxazol]-3′-one] was run?
A: Its EC50 is 0.029 µM.

Q: For N#Cc1cc(F)cc([C@@H]2CC[C@H]3O[C@]4(C[C@H](Oc5cc(C#N)ncn5)C4)C(=O)N32)c1 [Example 9.44, 6-(((5′S,7a′R)-5′-(3-cyano-5-fluorophenyl)-3′-oxotetrahydro-3′H-spiro[cyclobutane-1,2′-pyrrolo[2,1-b]oxazol]-3-yl)oxy)pyrimidine-4-carbonitrile], which EC50 is on record?
A: The EC50 was 0.028 µM.

Q: How did the EC50 turn out when N#Cc1cccc(OC2CC3(C2)O[C@@H]2CC[C@@H](c4cnccn4)N2C3=O)c1 (stereo partly drawn) [Example 19.15, 3-{[(5′S,7a′R)-3′-oxo-5′-(pyrazin-2-yl)tetrahydro-3′H-spiro[cyclobutane-1,2′-pyrrolo[2,1-b][1,3]oxazol]-3-yl]oxy}benzonitrile] was run?
A: Its EC50 is 0.018 µM.

Q: Which EC50 does the source give for CC(OC1CC2(C1)OC1CCC(c3cc(F)cc(F)c3)N1C2=O)c1ccccc1 (single isomer, unassigned) [Example 15.3, ((1S or R),3R,5′S,7a′R)-5′-(3,5-difluorophenyl)-3-((R or S)-1-phenylethoxy)tetrahydro-3′H-spiro[cyclobutane-1,2′-pyrrolo[2,1-b]oxazol]-3′-one] here?
A: Its EC50 is 0.026 µM.

Q: Which EC50 does the source give for O=C1N2[C@@H](CC[C@H]2c2ccccc2)OC12CC(Oc1ccncc1F)C2 (stereo partly drawn) [Example 8.7, (5′S,7a′R)-3-[(3-fluoropyridin-4-yl)oxy]-5′-phenyltetrahydro-3′H-spiro[cyclobutane-1,2′-pyrrolo[2,1-b][1,3]oxazol]-3′-one] here?
A: The EC50 was 0.074 µM.

Q: With Cn1cc(C2CCC3OC4(CC(Oc5cc(C#N)ncn5)C4)C(=O)N32)cn1 (single isomer, unassigned) [Example 6.1, 6-((((1r or s),3R,5′(S or R),7a′R)-5′-(1-methyl-1H-pyrazol-4-yl)-3′-oxotetrahydro-3′H-spiro[cyclobutane-1,2′-pyrrolo[2,1-b]oxazol]-3-yl)oxy)pyrimidine-4-carbonitrile] as the compound, how does the EC50 read?
A: Its EC50 is 93.4 µM.
